Test results as given in ChEMBL document CHEMBL1143372, “Synthesis of Pro-Xylane: a new biologically active C-glycoside in aqueous media” (2009).

Legend:
Type in all cases: functional, Homo sapiens
NHDF [1] = test: Antiaging activity in NHDF assessed as D-[6-H3]-glucosamine incorporation into glycosaminoglycan fraction at 10 mM after 72 hrs relative to control
NHDF [2] = test: Antiaging activity in NHDF assessed as D-[6-H3]-glucosamine incorporation into glycosaminoglycan fraction at 2 mM after 72 hrs relative to control
NHDF [3] = test: Antiaging activity in NHDF assessed as D-[6-H3]-glucosamine incorporation into glycosaminoglycan fraction at 0.4 mM after 72 hrs relative to control
NHDF [4] = test: Antiaging activity in NHDF assessed as D-[6-H3]-glucosamine incorporation into glycosaminoglycan fraction at 1 mM after 72 hrs relative to control
NHDF [5] = test: Antiaging activity in NHDF assessed as D-[6-H3]-glucosamine incorporation into glycosaminoglycan fraction at 3 mM after 72 hrs relative to control
NHDF [6] = test: Antiaging activity in NHDF assessed as D-[6-H3]-glucosamine incorporation into glycosaminoglycan fraction at 0.3 mM after 72 hrs relative to control
NHDF [7] = test: Antiaging activity in NHDF assessed as D-[6-H3]-glucosamine incorporation into glycosaminoglycan fraction at 0.1 mM after 72 hrs relative to control
NHDF [8] = test: Antiaging activity in NHDF assessed as D-[6-H3]-glucosamine incorporation into glycosaminoglycan fraction at 0.02 mM after 72 hrs relative to control
NHDF [9] = test: Antiaging activity in NHDF assessed as D-[6-H3]-glucosamine incorporation into glycosaminoglycan fraction at 0.5 mM after 72 hrs relative to control
NHDF [10] = test: Antiaging activity in NHDF assessed as D-[6-H3]-glucosamine incorporation into glycosaminoglycan fraction at 0.08 mM after 72 hrs relative to control

CC(=O)C[C@@H]1OC[C@@H](O)[C@H](O)[C@H]1O
Activity (NHDF [1]): 161% | Activity (NHDF [2]): 141% | Activity (NHDF [3]): 110%

CC(O)C[C@@H]1OC[C@@H](O)[C@H](O)[C@H]1O (stereo partly drawn)
Activity (NHDF [4]): 169% | Activity (NHDF [5]): 218% | Activity (NHDF [6]): 139%

CC(=O)C[C@@H]1O[C@H](CO)[C@H](O)[C@H](O)[C@H]1O
Activity (NHDF [1]): 99% | Activity (NHDF [4]): 136% | Activity (NHDF [5]): 119%

O=C(C[C@@H]1OC[C@@H](O)[C@H](O)[C@H]1O)c1ccccc1
Activity (NHDF [4]): 95% | Activity (NHDF [6]): 102% | Activity (NHDF [7]): 120%

O=C[C@H](O)[C@@H](O)[C@H](O)CO [XYLOSE]
Activity (NHDF [8]): 106% | Activity (NHDF [7]): 85% | Activity (NHDF [9]): 52%

O[C@@H]1[C@H](O)[C@@H](O)OC[C@H]1O [LYXOSE]
Activity (NHDF [2]): 86% | Activity (NHDF [3]): 102% | Activity (NHDF [10]): 90%
